Data on seven compounds can be found in patent publication US5623080A, “Fluorone and pyronin Y derivatives” (Spectra Group Limited, Inc., priority 1995, dated 1997).

The nature of series [1]: absorption wavelength (λmax) and extinction (ε). The series is classed as physicochemical. The conditions noted are these: for λmax in EtOH (first value) / ε (first value): Table 1, EtOH; for ε (first value): at first λmax, in M-1cm-1 (unit assumed); for λmax: synthesis example.
The nature of a further series: fluorescence (λf, φf). The series is classed as physicochemical. The text has this:
In Table 2 below, the properties of the foregoing initiators are shown:
Entries in the table are in the solvents according to the following order.

The nature of a further series: pKa. The series is classed as physicochemical. The text has this: (§1) In Table 2 below, the properties of the foregoing initiators are shown: […]
A short description of series [2]: oxidation and reduction potentials (Eox, Ered). The series is classed as physicochemical. The conditions noted are these: in V (unit assumed).
Excerpt: as §1

The next series in a line: depth of cure. The text has this:
One of the advantages of the fluorone dye photoinitiators in this invention is the depth of the cure that is obtainable. This is in contrast to UV photoinitators that causes a "screening" effect which prevents the UV light from penetrating beyond a certain […] depth, usually several millimeters. By contrast, the fluorone dye bleaches as it photoinitiates and is concommitantly converted into a non-visible absorbing species thus allowing more visible light to penetrate which continues the cure. This cascading bleaching effect permits substantial depth of cure which can easily reach several inches.
An acrylate monomer mixture was composed of 15 parts urethane diacrylate, 20 parts TPGPA, 40 parts TMPTA and 15 parts DPHPA, and a 20 to 1 weight ratio of NPG coinitiator to DIEF or DIBF fluorone dye. For dye concentrations of 0.01, 0.05 and 0.1 weight, all the formulations cured to a depth of 3 cm in 30 seconds when exposed to a 350 watt tungsten halogen light which provides about 500 mw/cm^2 irradiance. When the irradiance was increased to about 2 watts/cm^2 cure speed was shortened to 5 seconds for the same depth.
An acrylate mixture was composed of 60% urethane diacrylate, 30% DPHPA, 10% BDDA, and 0.05 weight % of DIEF or DIBF fluorone dye with 2 weight % of DIDMA. The formulation cure to a depth greater than 1 cm in 10 seconds when exposed to a 75 watt tungsten halogen lamp which provided an irradiance of about 260 mw/cm^2.
An acrylate mixture was composed of 33% TMPTA, 33% DPHPA, 33% Epoxy acrylate, and 2% of DIDMA with either 0.01, 0.05 or 0.1 weight % of DIEF. All samples cured to a depth greater than 1 cm in 10 seconds when exposed to a 75 watt tungsten halogen.
An acrylate mixture was composed of 70% urethane diacrylate, 5% DPHPA, 25% BDDA, and 2% DIDMA with either 0.01, 0.03 or 0.1 weight % DIEF. The 0.01 and 0.03 samples cured after 2 passes through a 300 watt per inch medium pressure mercury arc lamp at a speed of 50 feet/minute to a depth greater than 3 mm. The 0.1 sample cured to a depth of greater than 1.5 mm.

A further series is described as follows: pencil hardness. Here is the method: (§2) To a resin formulation consisting of 15 parts urethane diacrylate, 15 parts DPHPA, 20 parts TPGDA and 40 parts TMPTA was added DIDMA, initiator and (4-octyloxyphenyl)phenyliodonium hexafluoroantimonate (OPPI). The samples were coated to a thickness of 15 microns and exposed to a 75 W tungsten halogen dental lamp (focused through an optical fiber) at a distance of 0.75 inch at which the Light intensity was about 0.40 W/cm^2. The molar ratios are indicative of the amounts of fluorone to onium salt to amine coinitiator. The double bond conversion was determined by FTIR spectroscopy. The pencil hardness of a given test sample is measured by holding a pencil at a 45° angle to the sample and drawing across it towards the person testing it. Using the pencils in an order from softest to hardest, the first pencil that scratches the surface is assigned as the pencil hardness of the sample. The pencil hardness scale is as follows from softest to hardest: 4B, 3B, 2B, B, HB, H, 2H, 3H, 4H, 6H. For instance, if a 2H pencil is the first pencil to scratch the surface then the pencil hardness is 2H.
At the extreme ends of the scale, it is impossible to determine the actual pencil hardness. […] Likewise, if the 4B pencil scratches the sample, the only assignment that can be made is <4B, unless it is a lot softer than 4B in which case a <<4B can be assigned. A pencil hardness of 4H is generally considered satisfactory. Pencil hardness data was greater than 6H after 30 seocnd exposure for all samples except for the control samples without amine (1:2:0). The controls were all less than 4B an 0.05 wt %, 0.10 wt %, and 0.15 wt %.
Photosensitive compositions were prepared from the resin formulation of Example 35 containing 1% NPG and 0.05% DIBF or 0.05% DIEF. The samples were exposed under the conditions shown in the following table and pencil hardness was measured.
Diphenyliodonium hexafluoroantimonate was added to DIBF samples.
Samples were also prepared using 1% DIDMA in addition to the fluorone for a 20:1 weight ratio.
Samples were also prepared from the same resin formulation containing 0.1% DIBF in addition to the coinitiator listed in the following Table 9 with the exposure condition and pencil hardness results shown.
Using the resin formulation of Example 36, photosensitive compositions were prepared using TIHF, DIDMA and OPPI at a concentration of 0.21% and in the molar ratios shown in Table 10 which follows. Exposure was conducted with the dental lamp at a distance of 1 inch from the sample to provide an intensity of about 0.26 W/cm^2. Molar ratios are fluorone:onium salt:amine.

A short description of the next series: solubility. The series is classed as physicochemical.
A short description of series [3]: double bond conversion (C=C% Conversion) by FTIR. How it is done: as §2
A short description of the next series: film speed. The conditions noted are these: addition of coinitiator to onium salt composition. The text has this: Examples of onium salts useful in the invention can be found in published European Patent Application 0 408227A1. The preferred onium salts for use in the invention are diphenyliodonium salts such as diphenyliodonium hexafluorophosphate, arsenates, antimonates, etc., and, more particularly,hexafluoro-antimonate. Onium salts of simple anions such as chlorides, bromides, etc. are also useful in free radical polymerizable compositions. A particularly preferred onium salt is OPPI below. Addition of a coinitiator such as NPG improves film speed, pencil hardness and double bond conversion. A particularly preferred initiator system is a combination of an iodofluorone in accordance with the invention such as TIHF or DIBF, an amine such as NPG or DIDMA and an onium salt. A preferred molar ratio of fluorone to onium salt to amine is about 1:2:3. […] These onium salt formulations are illustrated in the following Examples 35-37.

The mark [4] stands for this setting: addition of coinitiator to onium salt composition.

Read-outs that look alike come from different tables or passages of the source.

`O=c1c(I)cc2cc3cc(I)c(O)c(I)c3oc-2c1I` [TIHF, 3-hydroxy-2,4,5,7-tetraiodo-6-fluorone]: the “λmax in EtOH (first value)” value in [1] is reported as 536. The “ε (first value)” value in [1] amounted to 91200. In addition, in [1] (ethanol), the λmax was 536 nm. Moreover, the φf result in the series “fluorescence (λf, φf)” is recorded as “.13”. In addition, the pKa in “pKa” was determined as 4.08. The Eox in series [2] stood at 1.04. In addition, the Ered entry in series [2] is listed as “-.95”. For the same compound, the “depth of cure results” value in the series “depth of cure” (other fluorone dyes) is reported as “have also been observed”. In addition, the “Pencil hardness” value is 4H in the series “pencil hardness” (0.21%, TIHF:OPPI:DIDMA (1:1:0), dental lamp 60 sec.); 5-6H in “pencil hardness” (0.21%, TIHF:OPPI:DIDMA (1:1:1), dental lamp 60 sec.); over 6H in “pencil hardness” (0.21%, TIHF:OPPI:DIDMA (1:1:5), dental lamp 60 sec.); over 6H in “pencil hardness” (0.21%, TIHF:OPPI:DIDMA (1:1:10), dental lamp 60 sec.); over 6H in “pencil hardness” (0.21%, TIHF:OPPI:DIDMA (1:1:33), dental lamp 60 sec.); 5-6H in “pencil hardness” (0.21%, TIHF:OPPI:DIDMA (1:2:0), dental lamp 60 sec.). Besides, the “Pencil hardness” value is over 6H in the series “pencil hardness” (0.21%, TIHF:OPPI:DIDMA (1:2:5), dental lamp 60 sec.); over 6H in “pencil hardness” (0.21%, TIHF:OPPI:DIDMA (1:2:10), dental lamp 60 sec.); over 6H in “pencil hardness” (0.21%, TIHF:OPPI:DIDMA (1:2:33), dental lamp 60 sec.); 5-6H in “pencil hardness” (0.21%, TIHF:OPPI:DIDMA (1:5:)), dental lamp 60 sec.); 5-6H in “pencil hardness” (0.21%, TIHF:OPPI:DIDMA (1:10:0), dental lamp 60 sec.).

In the case of `CCCCCCCC(=O)c1cc2c(C#N)c3cc(I)c(=O)c(I)c-3oc2c(I)c1O` [Compound 18, 9-cyano-3-hydroxy-4,5,7-triiodo-2-octanoyl-6-fluorone], in [1], the “λmax in EtOH (first value)” value came out at 636 and the “ε (first value)” value is given as 17,000. In series [1] (comparison), this compound came in with an absorption wavelength of 638 nm. Also, the “solubility in CDCl3” value in “solubility” is on record as “very good solubility”.

As for `CCCCCCCC(=O)c1cc2cc3cc(I)c(=O)c(I)c-3oc2c(I)c1O` [Compound 17, 3-hydroxy-4,5,7-triiodo-2octanoyl-6-fluorone], in series [1], the “λmax in EtOH (first value)” value was found to be 538 and the “ε (first value)” value is 84,800. Also, the “solubility in CDCl3” value in the series “solubility” is reported as “almost no solubility”. Further, the “solubility in DMSO” value in the series “solubility” (DMSO) is “poor solubility”.

Regarding `O=c1c(Br)cc2cc3cc(Br)c(O)c(Br)c3oc-2c1Br` [TBHF, 3-hydroxy-2,4,5,7-tetrabromo-6-fluorone], in [1], the “λmax in EtOH (first value)” value worked out at 530 and the “ε (first value)” value was determined as 39300. This compound also showed a λmax in [1] (methanol) of 526 nm. Also, the φf result in the series “fluorescence (λf, φf)” is recorded as “.52”. The same compound showed a λf in the series “fluorescence (λf, φf)” (MeOH) of 539 nm. Moreover, in “pKa”, the pKa worked out at 3.28. Further, in series [2], the Eox was 1.099 and the Ered result was “-.95”.

For the compound `O=C(O)CNc1ccccc1` [NPG, N-phenylglycine, reference compound], the double bond conversion entry in [3] (setting [4]) is “improves”. In addition, the Pencil hardness result in the series “pencil hardness” (setting [4]) is on record as “improves”. The film speed entry in the series “film speed” is on record as “improves”.

Turning to `O=c1ccc2cc3ccc(O)cc3oc-2c1` [HF, 3-Hydroxy-6-fluorone], in series [1], the “λmax in EtOH (first value)” value is 504 and the “ε (first value)” value is recorded as 24700. The same compound yielded a λmax in series [1] (methanol) of 500 nm. The φf entry in the series “fluorescence (λf, φf)” (10^-7 M (footnote c)) was “.95”. The pKa in the series “pKa” is on record as 5.97. In [2], the Eox was found to be 1.34 and the Ered entry is reported as “-.99”.

On to `CCOc1ccc2cc3cc(I)c(=O)c(I)c-3oc2c1` [DIEF, 5,7-diiodo-3-ethoxy-6-fluorone], for which, in [1], the “λmax in EtOH (first value)” value is given as 470. Also, the “ε (first value)” value in [1] is given as 21,100. The depth of cure entry is listed as “greater than 3 mm” in “depth of cure” (0.01 and 0.03 weight %, 2 passes, 300 watt per inch medium pressure mercury arc lamp, 50 feet/minute, 2% DIDMA); “greater than 1.5 mm” in “depth of cure” (0.1 weight %, 300 watt per inch medium pressure mercury arc lamp, 50 feet/minute, 2% DIDMA); “greater than 1 cm” in “depth of cure” (10 seconds, 75 watt tungsten halogen, about 260 mw/cm^2, 0.05 weight % dye, 2 weight % DIDMA, 60% urethane diacrylate, 30% DPHPA, 10% BDDA); “greater than 1 cm” in “depth of cure” (10 seconds, 75 watt tungsten halogen, 0.01, 0.05 or 0.1 weight %, 2% DIDMA, TMPTA/DPHPA/Epoxy acrylate); 3 cm in “depth of cure” (30 seconds, 350 watt tungsten halogen, about 500 mw/cm^2, dye 0.01, 0.05 and 0.1 weight, NPG 20 to 1). For the same compound, in the series “depth of cure” (about 2 watts/cm^2, NPG 20 to 1), the “cure time for the same depth (3 cm)” value stood at 5 s. The “C=C% Conversion” value in series [3] (0.05 wt %, (1:2:3), DIDMA, 30 sec) was found to be 40%. Besides, the Pencil hardness in the series “pencil hardness” (0.05 wt. %, 1% DIDMA, Dental Lamp, Air, 60 sec) is given as 3B; in the series “pencil hardness” (0.05 wt. %, 1% DIDMA, Dental Lamp, No Air, 30 sec), 3B; in the series “pencil hardness” (0.05 wt. %, 1% DIDMA, Dental Lamp, No Air, 60 sec) it was 2B; in “pencil hardness” (0.05 wt. %, 1% DIDMA, Fusion (Q bulb), Air, 10 ft/min), 2B; in the series “pencil hardness” (0.05 wt. %, 1% DIDMA, Fusion (Q bulb), Air, 20 ft/min) it was over 4B; in “pencil hardness” (0.05 wt. %, 1% NPG, Dental Lamp, Air, 60 sec), 2B. Also, the Pencil hardness in the series “pencil hardness” (0.05 wt. %, 1% NPG, Dental Lamp, No Air, 10 sec) was under 4B; in “pencil hardness” (0.05 wt. %, 1% NPG, Dental Lamp, No Air, 30 sec), 2H; in the series “pencil hardness” (0.05 wt. %, 1% NPG, Dental Lamp, No Air, 60 sec), 3H; in “pencil hardness” (0.05 wt. %, 1% NPG, Fusion (Q bulb), Air, 10 ft/min) it was over 6H; in “pencil hardness” (0.05 wt. %, 1% NPG, Fusion (Q bulb), Air, 20 ft/min), 3H; in the series “pencil hardness” (0.05 wt. %, 1% NPG, Overhead Proj., Air, 60 sec), 3B. The Pencil hardness in “pencil hardness” (0.05 wt. %, 1% NPG, Overhead Proj., No Air, 60 sec) worked out at 3H.
